Data on one compound can be found in article PMC9046208, “Foldamers reveal and validate therapeutic targets associated with toxic α-synuclein self-assembly” (Nature Communications, 2022).

Data set [1] deals with NL5901. Briefly: Motility (activity counts, WMicroTracker ARENA) of C elegans NL5901. It is filed as in vivo. To be noted: NL5901, 15 µM SK-129 at the larval stage. The protocol: The assay was carried out based on a previous protocol[57] with slight modifications. On day one, N2 and NL5901 strains were synchronized through the bleaching process involving egglay and the incubation of the eggs at an ambient temperature (~23 °C) on a solution of 3 mL NGM media in 60 mm culture plates (CytoOne, USA Scientific, Ocala, FL). The plates were seeded with 300 µL OP50 at an O.D. of 0.5 for 30 h. Simultaneously, a solution of 15 µM SK-129 (Stock solution concentration = 10 mM in DMSO) was made in M9 buffer and added to two sterilized 35 mm NGM solid media plates (Fisher Scientific, Pittsburgh, PA). The plates were already containing 2 mL of NGM solid media and 75 µM Fluorodeoxyuridine (FUDR) to prevent offspring in the worms. On day two, M9 buffer was used to transfer the worms from 60 mm NGM plates into 35 mm FUDR and SK-129 containing solid media plates (Fisher Scientific, Pittsburgh, PA) and incubated up to day three on these plates. On day four, liquid media was prepared according to the previous protocol[69] with some modifications. […] On day five, motility assay was conducted for worms under different conditions in duplicate using a WMicroTracker Arena plate reader (Phylumtech, Argentina) at ~23 °C for 1 h per day over a period of 12 days. […]

A short description of data set [2]: Parallel artificial membrane permeability assay (PAMPA). To be noted: 4% lecithin in dodecane; for permeability Pe: 1x PBS, 500 μM donor, RT, 18 h, UV absorbance. The class given is in vitro ADME. The protocol:
A parallel artificial membrane permeability assay (PAMPA) Kit (BioAssay Systems, Hayward, CA) was used to measure the membrane permeability of SK-129 according to the manufacturer’s protocol. Briefly, a 4% lecithin solution (LS) was prepared in dodecane and solubilized with constant sonication for 20 min. Then, 5 µL of LS was placed on the donor plate membranes. A 300 μL 1x PBS buffer was applied to the acceptor plate. The solutions of SK-129 and various permeability controls (Highly soluble, medium soluble and low soluble) molecules were added to donor plates (200 μL and 500 μM). The donor plate was placed in the acceptor plate and incubated at RT for 18 h. Then the solutions were removed from the acceptor plate and placed in a clear-bottom 96-well plate (Corning Inc., Corning, NY) and absorbance was recorded at 360 nm for SK-129 and 275 nm for standards. The permeability was calculated using Eq. 2:2 Pe=C×−ln1−ODA/ODEcm/s Where the permeability rate C is 7.72 × 10^−6, ODA is the absorbance of acceptor solution and ODE is absorbance of equilibrium standard.

Each structure is given as a SMILES string.

`COC(=O)c1cc(OCC(=O)O)c2cccc(NC(=O)c3cc(OC(C)C)c4cccc(NC(=O)c5cc(OCC(=O)O)c6cccc(NC(=O)c7cc(OC(C)C)c8cccc([N+](=O)[O-])c8n7)c6n5)c4n3)c2n1` [SK-129]: in data set [1], the “overall activity (motility)” value is given as “significant improvement in the overall activity”. In addition, the membrane permeation entry in data set [2] is “efficiently permeate cell membranes”. Moreover, the “permeability Pe” value in data set [2] (trial 1) is 4.75 ×10⁻⁶ cm/s; in data set [2] (trial 2) it was 4.45 ×10⁻⁶ cm/s; in data set [2] (trial 3) it was 4.64 ×10⁻⁶ cm/s; in data set [2] (trial 4), 4.65 ×10⁻⁶ cm/s; in data set [2] (trial 5), 4.64 ×10⁻⁶ cm/s; in data set [2] (trial 6) it was 4.36 ×10⁻⁶ cm/s. In addition, the “permeability Pe” value in data set [2] (trial 7) was 4.67 ×10⁻⁶ cm/s; in data set [2] (trial 8), 4.79 ×10⁻⁶ cm/s.
